Test results from patent publication US12269800B2, “Delivery of therapeutic alkaloid compounds” (priority 2021, dated 2025).
Values joined by “and” are separate entries in the source; they are usually repeats but may differ in a detail not shown here. Equal entries are not always repeated.

Assay: Hydrolysis Assay of Example A2, Condition 1 (SGF with pepsin, pH 1.5, 37° C.)
Type: physicochemical
Details: for Condition 1 Conversion (%), second value of a/b: value after the slash
[1] = SGF with pepsin pH 1.5, 37° C., 0.5 mM, time 1 min
[2] = SGF with pepsin pH 1.5, 37° C., 0.5 mM, time 5 min
[3] = SGF with pepsin pH 1.5, 37° C., 0.5 mM, time 30 min
[4] = SGF with pepsin pH 1.5, 37° C., 0.5 mM, time 1 h
[5] = SGF with pepsin pH 1.5, 37° C., 0.5 mM, time 4 h
[6] = SGF with pepsin pH 1.5, 37° C., 0.5 mM, time 24 h
[7] = SGF with pepsin pH 1.5, 37° C., time 1 min
[8] = SGF with pepsin pH 1.5, 37° C., time 5 min
[9] = SGF with pepsin pH 1.5, 37° C., time 30 min
[10] = SGF with pepsin pH 1.5, 37° C., time 1 h
[11] = SGF with pepsin pH 1.5, 37° C., time 4 h
[12] = SGF with pepsin pH 1.5, 37° C., time 24 h

COc1ccc([C@]23CCN(C)[C@H]2CC2(CC3)OCCS2)cc1OC (stereo partly shown) [Compound 69]
Condition 1 Conversion (%) [1]: 0%
Condition 1 Conversion (%) [2]: 0%
Condition 1 Conversion (%) [3]: 0%
Condition 1 Conversion (%) [4]: 0%
Condition 1 Conversion (%) [5]: 0%
Condition 1 Conversion (%) [6]: 0%

COc1ccc([C@@]23CCC(=NNC(N)=O)C[C@@H]2N(C)CC3)cc1OC [Compound 197, [[(3aS,7aS)-3a-(3,4-dimethoxyphenyl)-1-methyl-2,3,4,5,7,7a-hexahydroindol-6-ylidene]amino]urea]
Condition 1 Conversion (%) (pH 1.5): 0%

COc1ccc([C@]23CCN(C)[C@H]2CC2(CC3)OC[C@H](c3cccnc3)O2)cc1OC (stereo partly drawn) [Compound 109, (3′aS,7′aS)-3′a-(3,4-dimethoxyphenyl)-1′-methyl-4-(3-pyridyl)spiro[1,3-dioxolane-2,6′-2,3,4,5,7,7a-hexahydroindole]]
Condition 1 Conversion (%) [1]: 0%
Condition 1 Conversion (%) [2]: 0%
Condition 1 Conversion (%) [3]: 0%
Condition 1 Conversion (%) [4]: 0%
Condition 1 Conversion (%) [5]: 0%
Condition 1 Conversion (%) [6]: 0%

COc1ccc([C@@]23CC/C(=N\OC(C)(C)OC)C[C@@H]2N(C)CC3)cc1OC [Compound 204, (E,3aS,7aS)-3a-(3,4-dimethoxyphenyl)-N-(1-methoxy-1-methyl-ethoxy)-1-methyl-2,3,4,5,7,7a-hexahydroindol-6-imine]
Condition 1 Conversion (%) [1]: 100%
Condition 1 Conversion (%) [2]: 100%
Condition 1 Conversion (%) [3]: 0%
Condition 1 Conversion (%) [4]: 0%
Condition 1 Conversion (%) [5]: 0%
Condition 1 Conversion (%) [6]: 0%
Condition 1 Conversion (%), second value of a/b [7]: 0%
Condition 1 Conversion (%), second value of a/b [8]: 0%
Condition 1 Conversion (%), second value of a/b [9]: 100%
Condition 1 Conversion (%), second value of a/b [10]: 100%
Condition 1 Conversion (%), second value of a/b [11]: 100%
Condition 1 Conversion (%), second value of a/b [12]: 100%

COc1ccc([C@@]23CCN(C)[C@@H]2CC2(CC3)OCCS2)cc1OC (stereo partly shown) [Compound 070]
Condition 1 Conversion (%) [1]: 0%
Condition 1 Conversion (%) [2]: 0%
Condition 1 Conversion (%) [3]: 0%
Condition 1 Conversion (%) [4]: 0%
Condition 1 Conversion (%) [5]: 0%
Condition 1 Conversion (%) [6]: 0%

COc1ccc([C@@]23CCC(=NOC4CCCCO4)C[C@@H]2N(C)CC3)cc1OC (stereo partly drawn) [Compound 206, (3aS,7aS)-3a-(3,4-dimethoxyphenyl)-1-methyl-N-tetrahydropyran-2-yloxy-2,3,4,5,7,7a-hexahydroindol-6-imine]
Condition 1 Conversion (%) [3]: 1.41%
Condition 1 Conversion (%) [4]: 7.83%
Condition 1 Conversion (%) [5]: 0%
Condition 1 Conversion (%) [6]: 0%
Condition 1 Conversion (%), second value of a/b [9]: 0%
Condition 1 Conversion (%), second value of a/b [10]: 2.57%
Condition 1 Conversion (%), second value of a/b [11]: 77.75%
Condition 1 Conversion (%), second value of a/b [12]: 100%

C=CC1OC2(CC[C@@]3(c4ccc(OC)c(OC)c4)CCN(C)[C@H]3C2)OC1C=C (stereo partly drawn) [Compound 213, (3′aS,7′aS)-3′a-(3,4-dimethoxyphenyl)-1′-methyl-4,5-divinyl-spiro[1,3-dioxolane-2,6′-2,3,4,5,7,7a-hexahydroindole]]
Condition 1 Conversion (%) [1]: 0%
Condition 1 Conversion (%) [2]: 0%
Condition 1 Conversion (%) [3]: 0%
Condition 1 Conversion (%) [4]: 0%
Condition 1 Conversion (%) [5]: 0%
Condition 1 Conversion (%) [6]: 0%

COc1ccc([C@@]23CCC(=NNCCc4ccccc4)C[C@@H]2N(C)CC3)cc1OC [Compound 159, N-[[(3aS,7aS)-3a-(3,4-dimethoxyphenyl)-1-methyl-2,3,4,5,7,7a-hexahydroindol-6-ylidene]amino]-2-phenyl-ethanamine]
Condition 1 Conversion (%) (pH 1.5): 77% and 91% and 100% (2×)

COc1ccc([C@]23CCN(C)[C@H]2CC2(CC3)OCC(COCc3ccccc3)O2)cc1OC (stereo partly shown) [Compound 215]
Condition 1 Conversion (%) [1]: 0%
Condition 1 Conversion (%) [2]: 0%
Condition 1 Conversion (%) [3]: 6.1%
Condition 1 Conversion (%) [4]: 15.2%
Condition 1 Conversion (%) [5]: 25.8%
Condition 1 Conversion (%) [6]: 46.8%

COc1cccc(C2COC3(CC[C@@]4(c5ccc(OC)c(OC)c5)CCN(C)[C@H]4C3)O2)c1 (stereo partly drawn) [Compound 111, (3′aS,7′aS)-3′a-(3,4-dimethoxyphenyl)-4-(3-methoxyphenyl)-1′-methyl-spiro[1,3-dioxolane-2,6′-2,3,4,5,7,7a-hexahydroindole]]
Condition 1 Conversion (%) [1]: 0%
Condition 1 Conversion (%) [2]: 0%
Condition 1 Conversion (%) [3]: 0%
Condition 1 Conversion (%) [4]: 0%
Condition 1 Conversion (%) [5]: 0%
Condition 1 Conversion (%) [6]: 0%

COc1ccc([C@]23CCN(C)[C@H]2CC2(CC3)OCC(C)O2)cc1OC (stereo partly drawn) [Compound 211, (3′aS,7′aS)-3′a-(3,4-dimethoxyphenyl)-1′,4-dimethyl-spiro[1,3-dioxolane-2,6′-2,3,4,5,7,7a-hexahydroindole]]
Condition 1 Conversion (%) [1]: 0%
Condition 1 Conversion (%) [2]: 0%
Condition 1 Conversion (%) [3]: 0%
Condition 1 Conversion (%) [4]: 0%
Condition 1 Conversion (%) [5]: 0%
Condition 1 Conversion (%) [6]: 0%

COc1ccc([C@@]23CC/C(=N/OC(C)(C)OC)C[C@@H]2N(C)CC3)cc1OC [Compound 219, (Z,3aS,7aS)-3a-(3,4-dimethoxyphenyl)-N-(1-methoxy-1-methyl-ethoxy)-1-methyl-2,3,4,5,7,7a-hexahydroindol-6-imine]
Condition 1 Conversion (%) [1]: 100%
Condition 1 Conversion (%) [2]: 100%
Condition 1 Conversion (%) [3]: 0%
Condition 1 Conversion (%) [4]: 0%
Condition 1 Conversion (%) [5]: 0%
Condition 1 Conversion (%) [6]: 0%
Condition 1 Conversion (%), second value of a/b [7]: 0%
Condition 1 Conversion (%), second value of a/b [8]: 0%
Condition 1 Conversion (%), second value of a/b [9]: 100%
Condition 1 Conversion (%), second value of a/b [10]: 100%
Condition 1 Conversion (%), second value of a/b [11]: 100%
Condition 1 Conversion (%), second value of a/b [12]: 100%

COc1ccc([C@@]23CCC(=NOCC(=O)OC(C)(C)C)C[C@@H]2N(C)CC3)cc1OC [Compound 202, tert-butyl 2-[[(3aS,7aS)-3a-(3,4-dimethoxyphenyl)-1-methyl-2,3,4,5,7,7a-hexahydroindol-6-ylidene]amino]oxyacetate]
Condition 1 Conversion (%) [4]: 1.12%
Condition 1 Conversion (%) [5]: 3.01%
Condition 1 Conversion (%) [6]: 64.4%
Condition 1 Conversion (%), second value of a/b [10]: 0%
Condition 1 Conversion (%), second value of a/b [11]: 6.42%
Condition 1 Conversion (%), second value of a/b [12]: 6.42%

N-[[(3aS,7aS)-3a-(3,4-dimethoxyphenyl)-1-methyl-3,4,7,7a-tetrahydro-2H-indol-6-yl]3,4-dimethoxybenzoate [Compound 302]
Condition 1 Conversion (%) [1]: 0%
Condition 1 Conversion (%) [2]: 0%
Condition 1 Conversion (%) [3]: 0%
Condition 1 Conversion (%) [4]: 0%
Condition 1 Conversion (%) [5]: 0%
Condition 1 Conversion (%) [6]: 0%

COc1ccc([C@]23CCN(C)[C@H]2CC2(CC3)OCC(c3cccc([N+](=O)[O-])c3)O2)cc1OC (stereo partly drawn) [Compound 113, (3′aS,7′aS)-3′a-(3,4-dimethoxyphenyl)-1′-methyl-4-(3-nitrophenyl)spiro[1,3-dioxolane-2,6′-2,3,4,5,7,7a-hexahydroindole]]
Condition 1 Conversion (%) [1]: 0%
Condition 1 Conversion (%) [2]: 0%
Condition 1 Conversion (%) [3]: 0%
Condition 1 Conversion (%) [4]: 0%
Condition 1 Conversion (%) [5]: 0%
Condition 1 Conversion (%) [6]: 0%

COc1ccc([C@]23CCN(C)[C@H]2CC2(CC3)OCC(c3ccncc3)O2)cc1OC (stereo partly drawn) [Compound 110, (3′aS,7′aS)-3′a-(3,4-dimethoxyphenyl)-1′-methyl-4-(4-pyridyl)spiro[1,3-dioxolane-2,6′-2,3,4,5,7,7a-hexahydroindole]]
Condition 1 Conversion (%) [1]: 0%
Condition 1 Conversion (%) [2]: 0%
Condition 1 Conversion (%) [3]: 0%
Condition 1 Conversion (%) [4]: 0%
Condition 1 Conversion (%) [5]: 0%
Condition 1 Conversion (%) [6]: 0%

COc1ccc([C@]23CCN(C)[C@H]2CC2(CC3)OC[C@@H](c3ccccc3)O2)cc1OC (stereo partly drawn) [Compound 081, (3′aS,4R,7′aS)-3′a-(3,4-dimethoxyphenyl)-1′-methyl-4-phenyl-spiro[1,3-dioxolane-2,6′-2,3,4,5,7,7a-hexahydroindole]]
Condition 1 Conversion (%) [1]: 0%
Condition 1 Conversion (%) [2]: 0%
Condition 1 Conversion (%) [3]: 0%
Condition 1 Conversion (%) [4]: 0%
Condition 1 Conversion (%) [5]: 0%
Condition 1 Conversion (%) [6]: 0%
